The test system of one data set is Venturia inaequalis. In words: Venturia inaequalis test (apple) / protective. Format: in vivo. Particulars: 100 ppm active compound; protective spray on young apple plants; evaluated 10 days after inoculation; 0% = as control, 100% = no infection. The text has this:
(§1) Zur Herstellung einer zweckmäßigen Wirkstoffzubereitung vermischt man 1 Gewichtsteil Wirkstoff mit den angegebenen Mengen Lösungsmittel und Emulgator und verdünnt das Konzentrat mit Wasser auf die gewünschte Konzentration.
Zur Prüfung auf protektive Wirksamkeit werden junge Pflanzen mit der Wirkstoffzubereitung in der angegebenen Aufwandmenge besprüht. Nach Antrocknen des Spritzbelages werden die Pflanzen mit einer wäßrigen Konidiensuspension des Apfelschorferregers Venturia inaequalis inokuliert und verbleiben dann 1 Tag bei ca. 20 °C und 100% relativer Luftfeuchtigkeit in einer Inkubations-kabine.
Die Pflanzen werden dann im Gewächshaus bei ca. 21 °C und einer relativen Luftfeuchtigkeit von ca. 90% aufgestellt.
(§2) 10 Tage nach der Inokulation erfolgt die Auswertung. Dabei bedeutet 0% ein Wirkungsgrad, der demjenigen der Kontrolle entspricht, während ein Wirkungsgrad von 100% bedeutet, daß kein Befall beobachtet wird.

A further data set deals with Botrytis cinerea. In words: Botrytis cinerea test (bean) / protective. Format: in vivo. The note with it: 100 ppm active compound; protective spray on young bean plants; lesion size evaluated 2 days after inoculation; 0% = as control, 100% = no infection.
Description: as §1
Zur Prüfung auf protektive Wirksamkeit werden junge Pflanzen mit der Wirkstoffzubereitung in der angegebenen Aufwandmenge besprüht. Nach Antrocknen des Spritzbelages werden auf jedes Blatt 2 kleine mit Botrytis cinerea bewachsene Agarstückchen aufgelegt. Die inokulierten Pflanzen werden in einer abgedunkelten Kammer bei ca. 20 °C und 100% relativer Luftfeuchtigkeit aufgestellt.
2 Tage nach der Inokulation wird die Größe der Befallsflecken auf den Blättern ausgewertet. Dabei bedeutet 0% ein Wirkungsgrad, der demjenigen der Kontrolle entspricht, während ein Wirkungsgrad von 100% bedeutet, daß kein Befall beobachtet wird.

Another data set deals with Septoria tritici. In words: Septoria tritici test (wheat) / protective. Format: in vivo. The note with it: 1000 ppm active compound; protective spray on young wheat plants; evaluated 21 days after inoculation; 0% = as control, 100% = no infection.
Description: as §1
Zur Prüfung auf protektive Wirksamkeit werden junge Pflanzen mit der Wirkstoffzubereitung in der angegebenen Aufwandmenge besprüht. Nach Antrocknen des Spritzbelages werden die Pflanzen mit einer Sporensuspension von Septoria tritici besprüht. Die Pflanzen verbleiben 48 Stunden bei 20 °C und 100 % relativer Luftfeuchtigkeit in einer Inkubationskabine.
Die Pflanzen werden in einem Gewächshaus bei einer Temperatur von ca. 15 °C und einer relativen Luftfeuchtigkeit von 80 % aufgestellt.
21 Tage nach der Inokulation erfolgt die Auswertung. Dabei bedeutet 0% ein Wirkungsgrad, der demjenigen der Kontrolle entspricht, während ein Wirkungsgrad von 100% bedeutet, daß kein Befall beobachtet wird.

The test system of another data set is Leptosphaeria nodorum. As to the kind of experiment: Leptosphaeria nodorum test (wheat) / protective. Format: in vivo. Particulars: 1000 ppm active compound; protective spray on young wheat plants; evaluated 10 days after inoculation; 0% = as control, 100% = no infection.
Description: as §1
Zur Prüfung auf protektive Wirksamkeit werden junge Pflanzen mit der Wirkstoffzubereitung in der angegebenen Aufwandmenge besprüht. Nach Antrocknen des Spritzbelages werden die Pflanzen mit einer Sporensuspension von Leptosphaeria nodor um besprüht. Die Pflanzen verbleiben 48 Stunden bei 20 °C und 100 % relativer Luftfeuchtigkeit in einer Inkubationskabine.
Die Pflanzen werden in einem Gewächshaus bei einer Temperatur von ca. 20 °C und einer relativen Luftfeuchtigkeit von 80 % aufgestellt.
as §2

The subject of another data set is Pyricularia oryzae. The data set is classed as in vivo. Particulars: 500 ppm active compound; protective spray on young rice plants; evaluated 7 days after inoculation; 0% = as control, 100% = no infection.
The test system of a further data set is Alternaria solani. Format: in vivo. The note with it: 168 h, 500 ppm. As for the experimental part: as §1
Zur Prüfung auf protektive Wirksamkeit bespritzt man junge Tomatenpflanzen mit der Wirkstoffzubereitung in der angegebenen Aufwandmenge. 1 Tag nach der Behandlung werden die Pflanzen mit einer Sporensuspension von Alternaria solani inokuliert und stehen dann 24h bei 100% rel. Feuchte und 20°C. Anschließend stehen die Pflanzen bei 96% rel. Luftfeuchtigkeit und einer Temperatur von 20 C.
7 Tage nach der Inokulation erfolgt die Auswertung. Dabei bedeutet 0 % ein Wirkungsgrad, der demjenigen der Kontrolle entspricht, während ein Wirkungsgrad von 100 % bedeutet, dass kein Befall beobachtet wird.

For data set [1] the following is noted: HPLC on reversed-phase C18, 40°C, 0.1% aqueous formic acid / acetonitrile, linear gradient 10-95% acetonitrile.
Another data set relates to Sphaerotheca fuliginea. As to the kind of experiment: Sphaerotheca fuliginea test (cucumber) / protective. Particulars: 500 ppm active compound; protective spray on young cucumber plants; evaluated 7 days after inoculation; 0% = as control, 100% = no infection. The data set is classed as in vivo.
Description: as §1
Zur Prüfung auf protektive Wirksamkeit bespritzt man junge Gurkenpflanzen mit der Wirkstoffzubereitung in der angegebenen Aufwandmenge. 1 Tag nach der Behandlung werden die Pflanzen mit einer Sporensuspension von Sphaerotheca fuliginea inokuliert. Anschließend werden die Pflanzen in einem Gewächshaus bei 70 % relativer Luftfeuchtigkeit und einer Temperatur von 23 °C aufgestellt.
7 Tage nach der Inokulation erfolgt die Auswertung. Dabei bedeutet 0 % ein Wirkungsgrad, der demjenigen der Kontrolle entspricht, während ein Wirkungsgrad von 100 % bedeutet, daß kein Befall beobachtet wird.

Read-outs that look alike come from different tables or passages of the source.

For the compound `Cc1nnc(Cl)c(-c2c(F)cccc2Cl)c1N1CCC(C)CC1` [1-93, 3-Chlor-4-(2-chlor-6-fluorphenyl)-6-methyl-5-(4-methylpiperidin-1-yl)pyridazin], the Wirkungsgrad in the data set with Venturia inaequalis, with Botrytis cinerea, in the data set with Septoria tritici, in the data set with Leptosphaeria nodorum, with Pyricularia oryzae and in the data set on Alternaria solani was not below 70% in each case. In addition, the “logP^a)” value in data set [1] (Table 1) is recorded as 4,11. In the data set “physchem”, the chromatographic logP came out at 4.11.

On to `Cc1nnc(Cl)c(-c2c(F)cccc2Cl)c1N[C@H](C)C(C)C` [1-100], for which the Wirkungsgrad with Pyricularia oryzae, with Alternaria solani and in the data set with Sphaerotheca fuliginea was not below 70% each time. Besides, the chromatographic logP in “physchem” was 3.22.

Turning to `Cc1nnc(Cl)c(-c2c(F)cccc2Cl)c1OC1CCCCC1` [2-59], the Wirkungsgrad in the data set on Pyricularia oryzae and with Sphaerotheca fuliginea was not below 70% throughout. In the data set “physchem”, the chromatographic logP was 4.25.

In the case of `Cc1nnc(Cl)c(-c2c(F)cccc2Cl)c1Oc1ccc(Cl)cc1` [2-61, 3-Chlor-4-(2-chlor-6-fluorphenyl)-5-(4-chlorphenoxy)-6-methylpyridazin], the Wirkungsgrad in the data set with Venturia inaequalis, with Septoria tritici and in the data set on Leptosphaeria nodorum was not below 70% each time. Moreover, in data set [1] (Table 2), the “logP^a)” value is reported as 4,13.

One may read the chromatographic logP as a lipophilicity value derived from retention on a column. A low value points to lower lipophilicity.
